Data taken from ChEMBL document CHEMBL4000176, “Synthesis and SAR study of novel sarsasapogenin derivatives as potent neuroprotective agents and NO production inhibitors” (2017).
Activity calls are given as the source filed them. The rule behind the calls is not given here.

Assays:
[1] = test system: PC-12; test: Neuroprotective activity against H2O2-induced cytotoxicity in rat PC12 cells assessed as cell viability at 10 umol/L preincubated for 2 hrs followed by H2O2 addition and measured after 24 hrs by MTT assay (reference value: 18.9 +/- 2.2%); type: functional; conditions: for viability at 10 µM: read-out: Activity
[2] = test system: PC-12; test: Neuroprotective activity against H2O2-induced cytotoxicity in rat PC12 cells assessed as cell viability at 1 mM preincubated for 2 hrs followed by H2O2 addition and measured after 24 hrs by MTT assay (reference value: 18.9 +/- 2.2%); type: functional; conditions: read-out: Activity
[3] = test system: RAW264.7; test: Inhibition of LPS-induced NO production in mouse RAW264.7 cells at 10 umol/L after 24 hrs preincubated for 30 mins followed by LPS addition measured after 24 hrs by Griess assay relative to control; type: functional
[4] = test system: Mus musculus; test: Cognition enhancing effect in scopolamine-induced cognitive impairment mouse model assessed as increase in time spent in target quadrant at 6 mg/kg, ig administered once in a day for 14 consecutive days followed by scopolamine challenge 1 hr post last dose by Morris water maze test; type: functional, organism-based
[5] = test system: Mus musculus; test: Cognition enhancing effect in scopolamine-induced cognitive impairment mouse model assessed as increase in time spent in target quadrant at 3 mg/kg, ig administered once in a day for 14 consecutive days followed by scopolamine challenge 1 hr post last dose by Morris water maze test; type: functional, organism-based

Row | SMILES | viability at 10 µM [1] | inhibition at 10 µM [3] | also measured
1 | C[C@H]1CC[C@@]2(OC1)O[C@H]1C[C@H]3[C@@H]4CC[C@@H]5C[C@@H](OC(=O)N6CCCC6)CC[C@]5(C)[C@H]4CC[C@]3(C)[C@H]1[C@@H]2C | 16.1% |  | 
2 | C[C@H]1CC[C@@]2(OC1)O[C@H]1C[C@H]3[C@@H]4CC[C@@H]5C[C@@H](OC(=O)NCc6ccc(O)cc6)CC[C@]5(C)[C@H]4CC[C@]3(C)[C@H]1[C@@H]2C | 18.9% |  | 
3 | C[C@H]1CC[C@@]2(OC1)O[C@H]1C[C@H]3[C@@H]4CC[C@@H]5C[C@@H](OC(=O)NC(=N)NC#N)CC[C@]5(C)[C@H]4CC[C@]3(C)[C@H]1[C@@H]2C | 23.5% |  | 
4 | CC(=O)N[C@@H](CS)C(=O)O [ACETYLCYSTEINE] |  |  | viability at 1000 µM [2]: 35.3%
5 | C[C@H]1CC[C@@]2(OC1)O[C@H]1C[C@H]3[C@@H]4CC[C@@H]5C[C@@H](OC(=O)NCc6ccc(Cl)cc6)CC[C@]5(C)[C@H]4CC[C@]3(C)[C@H]1[C@@H]2C | 49.8% | 21.4% | 
6 | CC(C)CNC(=O)O[C@H]1CC[C@@]2(C)[C@H](CC[C@@H]3[C@@H]2CC[C@]2(C)[C@@H]4[C@H](C[C@@H]32)O[C@]2(CC[C@H](C)CO2)[C@H]4C)C1 | 48.2% | 20.5% | Activity [4]: Active
7 | COc1cc2c(cc1OC)C(=O)C(CC1CCN(Cc3ccccc3)CC1)C2 (centres undefined) |  |  | Activity [5]: Active
8 | C[C@H]1CC[C@@]2(OC1)O[C@H]1C[C@H]3[C@@H]4CC[C@@H]5C[C@@H](OC(=O)NN)CC[C@]5(C)[C@H]4CC[C@]3(C)[C@H]1[C@@H]2C | 11.2% |  | 
9 | C[C@H]1CC[C@@]2(OC1)O[C@H]1C[C@H]3[C@@H]4CC[C@@H]5C[C@@H](OC(=O)N6CCCCC6)CC[C@]5(C)[C@H]4CC[C@]3(C)[C@H]1[C@@H]2C | 20.1% | 28.7% | 
10 | C[C@H]1CC[C@@]2(OC1)O[C@H]1C[C@H]3[C@@H]4CC[C@@H]5C[C@@H](OC(=O)N6CCNCC6)CC[C@]5(C)[C@H]4CC[C@]3(C)[C@H]1[C@@H]2C | 3.4% |  | 
11 | C[C@H]1CC[C@@]2(OC1)O[C@H]1C[C@H]3[C@@H]4CC[C@@H]5C[C@@H](OC(=O)NCc6ccccc6)CC[C@]5(C)[C@H]4CC[C@]3(C)[C@H]1[C@@H]2C | 49.4% | 8.9% | 
12 | COc1ccc(CNC(=O)O[C@H]2CC[C@@]3(C)[C@H](CC[C@@H]4[C@@H]3CC[C@]3(C)[C@@H]5[C@H](C[C@@H]43)O[C@]3(CC[C@H](C)CO3)[C@H]5C)C2)cc1 | 21.5% |  | 
13 | Cc1ccc(CNC(=O)O[C@H]2CC[C@@]3(C)[C@H](CC[C@@H]4[C@@H]3CC[C@]3(C)[C@@H]5[C@H](C[C@@H]43)O[C@]3(CC[C@H](C)CO3)[C@H]5C)C2)cc1 | 39.3% |  | 
14 | C[C@H]1CC[C@@]2(OC1)O[C@H]1C[C@H]3[C@@H]4CC[C@@H]5C[C@@H](OC(=O)NCc6cccc(Cl)c6)CC[C@]5(C)[C@H]4CC[C@]3(C)[C@H]1[C@@H]2C | 40.3% | 19.3% | 
15 | C[C@H]1CC[C@@]2(OC1)O[C@H]1C[C@H]3[C@@H]4CC[C@@H]5C[C@@H](O)CC[C@]5(C)[C@H]4CC[C@]3(C)[C@H]1[C@@H]2C [SARSASAPOGENIN] | 3.3% |  | 
16 | C[C@H]1CC[C@@]2(OC1)O[C@H]1C[C@H]3[C@@H]4CC[C@@H]5C[C@@H](OC(=O)NC6CCCCC6)CC[C@]5(C)[C@H]4CC[C@]3(C)[C@H]1[C@@H]2C | 52.2% | 4.6% | 
17 | C[C@H]1CC[C@@]2(OC1)O[C@H]1C[C@H]3[C@@H]4CC[C@@H]5C[C@@H](OC(=O)NCCN)CC[C@]5(C)[C@H]4CC[C@]3(C)[C@H]1[C@@H]2C |  |  | Activity [1]: inactive
